Measurements: patent US20230285577A1, “POLYSACCHARIDE DERIVATIVE, POLYSACCHARIDE DERIVATIVE-DRUG CONJUGATE, AND METHOD FOR PRODUCING SAME” (priority 2020, published 2023)

How the values were obtained:
[1] = Release test of DOX from HA-ABA-DOX (dialysis tube, PBS); assay type: physicochemical; conditions: PBS 37° C., pH 5.0, 6.0, 7.4
Description: Release of DOX from HA-ABA-DOX under different pH conditions was investigated in the same manner as in Example II-2. Specifically, 1 mL of an aqueous solution of the HA-ABA-DOX (1 mg/mL) obtained in Example II-3 above was placed in a dialysis tube (MWCO: 1 kDa), and shaken at 50 rpm while being incubated with 79 mL of PBS (37° C., pH=5.0, 6.0 7.4). The external solution (sustained release solution) was collected at specific time points, and new PBS was substituted for the entire amount. The drug concentration in the collected external solution (sustained release solution) was measured by UV-vis, and the release rate of the drug DOX was calculated.

[2] = test system: AB22 cells (mouse mesothelioma cells); assay: Cell toxicity evaluation (WST assay) of HA-ABA-DOX in AB22; assay type: cell-based; conditions: 48 hours; for Cell growth inhibition effect (cell viability): DOX 10^−3 to 100 μg/mL
Description: As with the HA-ABA, the cell toxicity of HA-ABA-DOX in AB22 cells (mouse mesothelioma cells) was evaluated by WST assay.
Specifically, AB22 cells (mouse mesothelioma cells) were seeded on 24-well plates and incubated for 24 hours. The medium was then replaced with media having […] dissolved at different DOX concentrations (10^−3 μg/mL, 10^−2 μg/mL, 10^−1 μg/mL, 1 μg/mL, 10 μg/mL, 100 μg/mL). Cell viability (%) 48 hours after sample addition was then measured by WST-8 assay (Cell Counting Kit-8 Dojindo).
For purposes of comparison as a control test, cell toxicity was also evaluated using free DOX in place of HA-ABA-DOX.

[3] = Release test of PMX from HA-ABA-PMX (dialysis tube, PBS); assay type: physicochemical
Description: The release behavior or PMX from HA-ABA-PMX at different pH values was investigated using a dialysis tube (MWCO: 1 kDa). […] The external solution (sustained release solution) was collected at specific time points, and new PBS was substituted for the entire amount. The drug concentration in the collected external solution (sustained release solution) was measured by UV-vis, and the release rate of the drug PMX was calculated.

[4] = test system: AB22 cells (mouse mesothelioma cells); assay: Cell toxicity evaluation (WST assay) of HA-ABA-PMX in AB22; assay type: cell-based; conditions: 48 hours; for Cell growth inhibition effect (cell viability): PMX 10^−4 to 10 μg/mL
Description: (§1) As with the HA-ABA, the cell toxicity of HA-ABA-PMX in MeT-5A (human mesothelial cell line) and AB22 cells (mouse mesothelioma cells) was evaluated by WST assay.
(§2) Specifically, MeT-5A (human mesothelial cell line) and AB22 cells (mouse mesothelioma cells) were seeded on 24-well plates and incubated for 24 hours. The medium was then replaced with medium having HA-ABA-PMX dissolved at different PMX concentrations (10^−4 μg/mL, 10^−3 μg/mL, 10^−2 μg/mL, 10^−1 μg/mL, 1 μh/mL, 10 μg/mL). Cell viability (%) 48 hours after sample addition was then measured by WST-8 assay (Cell Counting Kit-8, Dojindo).

[5] = test system: MeT-5A (human mesothelial cell line); assay: Cell toxicity evaluation (WST assay) of HA-ABA-PMX in MeT-5A; assay type: cell-based; conditions: 48 hours; for Cell growth inhibition effect (cell viability): PMX 10^−4 to 10 μg/mL
Description: as §1, §2

[6] = Release test of Van from AL-ABA-Van solution (dialysis membrane, PBS); assay type: physicochemical
Description: The release behavior or Van from an AL-ABA-Van solution at different pH values was investigated using a dialysis membrane (pore size: 50 kDa). Specifically, 1 mL of an AL-ABA-Van solution of the AL-ABA-Van obtained in Example I-7 above dissolved in […] of pure water was injected into a dialysis membrane cut to 9 cm, and both ends of the dialysis membrane were tied with kite thread. This was placed in an 80 mL security, container, 79 mL of PBS solution was added, and the mixture was stirred at the maximum rotational speed with a 1 cm stirrer tip in a 37° C. thermostatic tank. 1.0 mL samples were taken from the solution in the security container at specific time points (1, 2, 3, 4, 6, 8, 12, 24, and 48 hours). The sample solutions were subjected to UV-vis spectrum measurement, the drug concentration in the solutions was assayed based on absorbance, and the release rate of the drug Van (vancomycin release %) was calculated. The above measurements were conducted with pH 5.0, pH 6.0 and pH 7.4 PBS solutions (n=4 at each pH).
For purposes of comparison as control tests, the same release testing was also performed with the AL-ABA-Van solution replaced by a mixed solution (AL+Van) of sodium alginate and vancomycin obtained by dissolving 3 mg/mL of sodium alginate (AL) (IL-6G, viscosity 50 to 80 mPa·s (1%), manufactured by Kimica Co., Ltd.) and 8.6 mg/mL of vancomycin (Van) in pure water, and by a solution (Van only) obtained by dissolving 8.6 mg/mL of vancomycin (Van) in pure water.

benzaldehyde-modified hyaluronic acid-doxorubicin conjugate [HA-ABA-DOX]
pH dependence of DOX release [1]: selective drug release at low pH | Concentration depressing cell viability compared with free DOX [2]: depressed cell viability at lower concentrations | Cell growth inhibition effect (cell viability) [2]: dose-dependent cell growth inhibition effects

benzaldehyde-modified hyaluronic acid-pemetrexed conjugate [HA-ABA-PMX]
PMX released (cumulative drug release) ([3]; PBS pH 5.0, 37° C., after 24 hours): more than 80% | PMX not released ([3]; PBS pH 7.4, 37° C., after 24 hours): 40% | pH dependence of PMX release ([3]; pH 5.0, 6.0, 7.4): released more rapidly at lower pH values | Concentration reducing cell viability compared with free PMX and HA-ADH-PMX [4]: reduced cell viability at lower concentrations | Cell growth inhibition effect (cell viability) [4]: dose-dependent cell growth inhibition effects | Concentration reducing cell viability compared with free PMX and HA-ADH-PMX [5]: reduced cell viability at lower concentrations | Cell growth inhibition effect (cell viability) [5]: dose-dependent cell growth inhibition effects

benzaldehyde-modified alginic acid-vancomycin conjugate [AL-ABA-Van]
Van released (cumulative release rate) ([6]; PBS pH 5.0, 37° C., after 10 hours): over 80% | Van not released ([6]; PBS pH 7.4, 37° C., after 10 hours): ~50% | pH dependence of Van release behavior ([6]; pH 5.0, 6.0, 7.4): released more rapidly the lower the pH

CN[C@H](CC(C)C)C(=O)N[C@H]1C(=O)N[C@@H](CC(N)=O)C(=O)N[C@H]2C(=O)N[C@H]3C(=O)N[C@H](C(=O)N[C@H](C(=O)O)c4cc(O)cc(O)c4-c4cc3ccc4O)[C@H](O)c3ccc(c(Cl)c3)Oc3cc2cc(c3O[C@@H]2O[C@H](CO)[C@@H](O)[C@H](O)[C@H]2O[C@H]2C[C@](C)(N)[C@H](O)[C@H](C)O2)Oc2ccc(cc2Cl)[C@H]1O [Van, Vancomycin, reference compound]
Van released ([6]; control solutions, first 10 hours, pH 5.0, 6.0, 7.4): almost all | pH dependence of Van release behavior ([6]; pH 5.0, 6.0, 7.4): no difference in release behavior depending on pH

COc1cccc2c1C(=O)c1c(O)c3c(c(O)c1C2=O)C[C@@](O)(C(=O)CO)C[C@@H]3O[C@H]1C[C@H](N)[C@H](O)[C@H](C)O1 [free DOX, Doxorubicin, reference compound]
Cell growth inhibition effect (cell viability) [2]: dose-dependent cell growth inhibition effects

Nc1nc2[nH]cc(CCc3ccc(C(=O)N[C@@H](CCC(=O)O)C(=O)O)cc3)c2c(=O)[nH]1 [Free PMX, Pemetrexed, reference compound]
PMX released ([3]; control solutions, within 2 hours): almost all | Cell growth inhibition effect (cell viability) [4]: dose-dependent cell growth inhibition effects | Cell growth inhibition effect (cell viability) [5]: dose-dependent cell growth inhibition effects
